Results as given in US20110171332A1, “LEUCOJUM BULB EXTRACTS AND USE THEREOF” (I.B.R. ISRAELI BIOTECHNOLOGY RESEARCH LTD., priority 2008, published 2011).

Tested on: nerve-muscle co-culture
Test: Muscle contraction frequency in nerve-muscle co-culture
Type: cell-based, human, rat
Conditions: carisoprodol 5×10^−3M; for Contraction (%): % of contractions at T0; for Contraction (%) / Result: single wells
Description: The nerve-muscle co-culture model is a model suited to studying the influence of a substance on a muscle contraction frequency. The number of muscular contractions is counted during a given time, before and after applying the examined substance to the co-culture. The number of contractions in the presence of the substance is expressed in percentage compared to the initial number of contractions. An inhibitory effect on muscle contraction is determined if a significant reduction or blocking of the muscular contraction frequency is observed in at least 2 wells out of 3 wells containing the nerve-muscle co-culture.
Human muscular cells were seeded in 24-wells culture plates. Cells were incubated at 37° C., 5% CO2 during the entire culture duration.
After 5 days of culture, spinal cords were isolated from rat embryos, and were cut in small parts (explants). One explant per culture well was placed on the muscular cells, and both cell types were cultivated in 24-wells plate for 21 days.
During the cultivation period, the muscular cells merge and form muscular fibers. The motor neurons present in the spinal cord emit nervous extensions which contact the muscular fibers. Neuro-muscular junctions are formed and muscular contractions appear.
After 21 days of co-culture, the model was mature and functional. The muscular fibers innervated spontaneously and contracted in a regular way.
A stock solution of the test extract was prepared in the culture medium. This solution was applied to the nerve-muscle culture.
The culture medium alone served as a negative control.
The positive control was carisoprodol, a drug which blocks the muscular contraction in a reversible way. A stock solution of carisoprodol was prepared in DMSO at 1M. This solution was diluted at 1/200 into the culture medium (final concentration of 5×10^−3M). Three culture wells were used per treatment (control/test extract).
The trial started at the 21st day of the culture.
The microscope is equipped with a motorized stage piloted by a LUCIA software. It is also combined with a camera and connected to a computer allowing the recording of video sequences.
For each selected culture well, a muscle fiber showing regular contractions is referenced. The XY data of this fiber were registered using the LUCIA software. The frequency of the contractions of this fiber was manually counted during 30 seconds, and a video sequence was recorded (T0). The same operation was carried out for all wells.
The test extract and the references were applied to the nerve-muscle culture, and the trial system was incubated at 37° C., 5% CO2.
After 2 hours, 6 hours and 24 hours of incubation, the contraction frequency was counted again during 30 seconds and a video sequence was also recorded for each counting.
For each culture well, the number of muscular contractions counted in the presence of the examined extract is expressed in percentage compared to the number of contractions counted before extract application (T0).
When the frequency of contractions is in the range of between 80%-120% compared to T0, the modulation of the muscular contractions frequency is not considered as significant. This range is based on the fact that during the time, the muscular contraction frequency can vary slightly, independent on the conditions applied.
The results are expressed as follows: • No significant variation in the muscular contractions frequency: contractions percentage between 80 and 120%, symbolized by (=) • A significant reduction in the muscular contractions frequency: contractions percentage <80%, symbolized by (−). • Blocking of the muscular contractions frequencies: contractions percentage=0%, symbolized by (0) • A significant increase in the muscular contractions frequencies: contractions percentage >120%, symbolized by (+).
The product effect is assessed only if the same result is obtained in at least 2 out of 3 culture wells (i.e. 2 out of 3 muscle fibers).

Which results are given for `CCCC(C)(COC(N)=O)COC(=O)NC(C)C` (stereo not shown) [Carisoprodol, carisoprodol]?
conclusion (2 h incubation): Blocked; Contraction (%) (2 h incubation): 0%; conclusion (2 h incubation, listed as carisoprodol): complete blockage; Result (2 h incubation): 0 (Blocking of the muscular contractions frequencies: contractions percentage=0%); conclusion (6 h incubation): Blocked; Contraction (%) (6 h incubation): 0%; conclusion (6 h incubation, listed as carisoprodol): complete blockage; Result (6 h incubation): 0 (Blocking of the muscular contractions frequencies: contractions percentage=0%); conclusion (24 h incubation): Blocked; Contraction (%) (24 h incubation): 0%; conclusion (24 h incubation, listed as carisoprodol): complete blockage; Result (24 h incubation): 0 (Blocking of the muscular contractions frequencies: contractions percentage=0%); reversibility of the effect on muscle contractions after rinsing off (after rinsing off): reversible
